Test results published in paper PMC10088252.
Where two headings read alike, the source gives them in different places.

## O=C(Nc1ccc(Oc2ccnc3c2CCN3)c(F)c1)c1c[nH]cc(-c2ccc(F)cc2)c1=O
400 mg BID (n=4)
  TRAE Dyskinesia, any grade: 0 n (%)
  TRAE Dyskinesia, grade 3-4: 0 n (%)
  TRAE Dysphonia, any grade: 0 n (%)
  TRAE Dysphonia, grade 3-4: 0 n (%)
  TRAE Dyspnoea, any grade: 0 n (%)
  TRAE Dyspnoea, grade 3-4: 0 n (%)
  TRAE Electrocardiogram QT prolonged, any grade: 0 n (%)
  TRAE Electrocardiogram QT prolonged, grade 3-4: 0 n (%)
  TRAE Elevated ALT, any grade: 3 (75.0) n (%)
  TRAE Elevated ALT, grade 3-4: 0 n (%)
  TRAE Elevated AST, any grade: 3 (75.0) n (%)
  TRAE Elevated AST, grade 3-4: 0 n (%)
  TRAE Elevated D dimer, any grade: 0 n (%)
  TRAE Elevated D dimer, grade 3-4: 0 n (%)
  TRAE Elevated GGT, any grade: 1 (25.0) n (%)
  TRAE Elevated GGT, grade 3-4: 0 n (%)
  TRAE Elevated LDH, any grade: 1 (25.0) n (%)
  TRAE Elevated LDH, grade 3-4: 0 n (%)
  TRAE Elevated alpha-HBDH, any grade: 1 (25.0) n (%)
  TRAE Elevated alpha-HBDH, grade 3-4: 0 n (%)
  TRAE Elevated bilirubin, any grade: 1 (25.0) n (%)
  TRAE Elevated bilirubin, grade 3-4: 0 n (%)
  TRAE Elevated blood creatinine, any grade: 1 (25.0) n (%)
  TRAE Elevated blood creatinine, grade 3-4: 0 n (%)
  TRAE Elevated creatine phosphokinase, any grade: 2 (50.0) n (%)
  TRAE Elevated creatine phosphokinase, grade 3-4: 0 n (%)
  TRAE Elevated serum urea, any grade: 0 n (%)
  TRAE Elevated serum urea, grade 3-4: 0 n (%)
  TRAE Elevated troponin, any grade: 0 n (%)
  TRAE Elevated troponin, grade 3-4: 0 n (%)
  TRAE Genital rash, any grade: 0 n (%)
  TRAE Genital rash, grade 3-4: 0 n (%)
  TRAE Haematuria, any grade: 0 n (%)
  TRAE Haematuria, grade 3-4: 0 n (%)
  TRAE Headache, any grade: 0 n (%)
  TRAE Headache, grade 3-4: 0 n (%)
  TRAE Hyperhidrosis, any grade: 0 n (%)
  TRAE Hyperhidrosis, grade 3-4: 0 n (%)
  TRAE Hyperlipidaemia, any grade: 1 (25.0) n (%)
  TRAE Hyperlipidaemia, grade 3-4: 0 n (%)
  TRAE Hypertension, any grade: 1 (25.0) n (%)
  TRAE Hypertension, grade 3-4: 0 n (%)
  TRAE Hypoaesthesia oral, any grade: 0 n (%)
  TRAE Hypoaesthesia oral, grade 3-4: 0 n (%)
  TRAE Hypocalcaemia, any grade: 0 n (%)
  TRAE Hypocalcaemia, grade 3-4: 0 n (%)
  TRAE Hypotension, any grade: 0 n (%)
  TRAE Hypotension, grade 3-4: 0 n (%)
  TRAE Insomnia, any grade: 0 n (%)
  TRAE Insomnia, grade 3-4: 0 n (%)
  TRAE Leukopenia, any grade: 1 (25.0) n (%)
  TRAE Leukopenia, grade 3-4: 0 n (%)
  TRAE Nausea, any grade: 0 n (%)
  TRAE Nausea, grade 3-4: 0 n (%)
  TRAE Neuritis, any grade: 0 n (%)
  TRAE Neuritis, grade 3-4: 0 n (%)
  TRAE Occult blood, any grade: 0 n (%)
  TRAE Occult blood, grade 3-4: 0 n (%)
  TRAE Oedema peripheral, any grade: 0 n (%)
  TRAE Oedema peripheral, grade 3-4: 0 n (%)
  TRAE Onycholysis, any grade: 0 n (%)
  TRAE Onycholysis, grade 3-4: 0 n (%)
  TRAE Oropharyngeal pain, any grade: 0 n (%)
  TRAE Oropharyngeal pain, grade 3-4: 0 n (%)
  TRAE PPE, any grade: 4 (100.0) n (%)
  TRAE PPE, grade 3-4: 3 (75.0) n (%)
  TRAE Paraesthesia, any grade: 0 n (%)
  TRAE Paraesthesia, grade 3-4: 0 n (%)
  TRAE Proteinuria, any grade: 0 n (%)
  TRAE Proteinuria, grade 3-4: 0 n (%)
  TRAE Pruritus, any grade: 0 n (%)
  TRAE Pruritus, grade 3-4: 0 n (%)
  TRAE Rash maculo-papular, any grade: 0 n (%)
  TRAE Rash maculo-papular, grade 3-4: 0 n (%)
  TRAE Sinus tachycardia, any grade: 0 n (%)
  TRAE Sinus tachycardia, grade 3-4: 0 n (%)
  TRAE Skin fissures, any grade: 0 n (%)
  TRAE Skin fissures, grade 3-4: 0 n (%)
  TRAE Supraventricular extrasystoles, any grade: 0 n (%)
  TRAE Supraventricular extrasystoles, grade 3-4: 0 n (%)
  TRAE Thrombocytopenia, any grade: 2 (50.0) n (%)
  TRAE Thrombocytopenia, grade 3-4: 1 (25.0) n (%)
  TRAE Upper respiratory tract infection, any grade: 0 n (%)
  TRAE Upper respiratory tract infection, grade 3-4: 0 n (%)
  TRAE Urinary retention, any grade: 0 n (%)
  TRAE Urinary retention, grade 3-4: 0 n (%)
  TRAE Urinary tract infection, any grade: 0 n (%)
  TRAE Urinary tract infection, grade 3-4: 0 n (%)
  TRAE Ventricular arrhythmia, any grade: 0 n (%)
  TRAE Ventricular arrhythmia, grade 3-4: 0 n (%)
  TRAE Ventricular extrasystoles, any grade: 0 n (%)
  TRAE Ventricular extrasystoles, grade 3-4: 0 n (%)
  TRAE Vomiting, any grade: 1 (25.0) n (%)
  TRAE Vomiting, grade 3-4: 0 n (%)
  TRAE Weight loss, any grade: 0 n (%)
  TRAE Weight loss, grade 3-4: 0 n (%)
450 mg QD (n=12)
  TRAE Accessory nerve disorder, any grade: 0 n (%)
  TRAE Accessory nerve disorder, grade 3-4: 0 n (%)
  TRAE Activated partial thromboplastin time prolonged, any grade: 1 (8.3) n (%)
  TRAE Activated partial thromboplastin time prolonged, grade 3-4: 0 n (%)
  TRAE Anaemia, any grade: 1 (8.3) n (%)
  TRAE Anaemia, grade 3-4: 1 (8.3) n (%)
  TRAE Anaesthesia oral, any grade: 0 n (%)
  TRAE Anaesthesia oral, grade 3-4: 0 n (%)
  TRAE Arrhythmia, any grade: 0 n (%)
  TRAE Arrhythmia, grade 3-4: 0 n (%)
  TRAE Arthralgia, any grade: 1 (8.3) n (%)
  TRAE Arthralgia, grade 3-4: 0 n (%)
  TRAE Asthenia, any grade: 2 (16.7) n (%)
  TRAE Asthenia, grade 3-4: 0 n (%)
  TRAE Blister, any grade: 1 (8.3) n (%)
  TRAE Blister, grade 3-4: 0 n (%)
  TRAE Chest discomfort, any grade: 0 n (%)
  TRAE Chest discomfort, grade 3-4: 0 n (%)
  TRAE Chronic kidney disease, any grade: 1 (8.3) n (%)
  TRAE Chronic kidney disease, grade 3-4: 0 n (%)
  TRAE Constipation, any grade: 5 (41.7) n (%)
  TRAE Constipation, grade 3-4: 0 n (%)
  TRAE Cough, any grade: 0 n (%)
  TRAE Cough, grade 3-4: 0 n (%)
  TRAE Decreased Ccr, any grade: 2 (16.7) n (%)
  TRAE Decreased Ccr, grade 3-4: 0 n (%)
  TRAE Decreased appetite, any grade: 2 (16.7) n (%)
  TRAE Decreased appetite, grade 3-4: 0 n (%)
  TRAE Diarrhoea, any grade: 1 (8.3) n (%)
  TRAE Diarrhoea, grade 3-4: 0 n (%)
  TRAE Dizziness, any grade: 0 n (%)
  TRAE Dizziness, grade 3-4: 0 n (%)
  TRAE Dry mouth, any grade: 2 (16.7) n (%)
  TRAE Dry mouth, grade 3-4: 0 n (%)
  TRAE Dysgeusia, any grade: 3 (25.0) n (%)
  TRAE Dysgeusia, grade 3-4: 0 n (%)
  TRAE Dyskinesia, any grade: 0 n (%)
  TRAE Dyskinesia, grade 3-4: 0 n (%)
  TRAE Dysphonia, any grade: 0 n (%)
  TRAE Dysphonia, grade 3-4: 0 n (%)
  TRAE Dyspnoea, any grade: 0 n (%)
  TRAE Dyspnoea, grade 3-4: 0 n (%)
  TRAE Electrocardiogram QT prolonged, any grade: 0 n (%)
  TRAE Electrocardiogram QT prolonged, grade 3-4: 0 n (%)
  TRAE Elevated ALT, any grade: 5 (41.7) n (%)
  TRAE Elevated ALT, grade 3-4: 0 n (%)
  TRAE Elevated AST, any grade: 5 (41.7) n (%)
  TRAE Elevated AST, grade 3-4: 0 n (%)
  TRAE Elevated D dimer, any grade: 0 n (%)
  TRAE Elevated D dimer, grade 3-4: 0 n (%)
  TRAE Elevated GGT, any grade: 0 n (%)
  TRAE Elevated GGT, grade 3-4: 0 n (%)
  TRAE Elevated LDH, any grade: 0 n (%)
  TRAE Elevated LDH, grade 3-4: 0 n (%)
  TRAE Elevated alpha-HBDH, any grade: 0 n (%)
  TRAE Elevated alpha-HBDH, grade 3-4: 0 n (%)
  TRAE Elevated bilirubin, any grade: 0 n (%)
  TRAE Elevated bilirubin, grade 3-4: 0 n (%)
  TRAE Elevated blood creatinine, any grade: 2 (16.7) n (%)
  TRAE Elevated blood creatinine, grade 3-4: 0 n (%)
  TRAE Elevated creatine phosphokinase, any grade: 1 (8.3) n (%)
  TRAE Elevated creatine phosphokinase, grade 3-4: 0 n (%)
  TRAE Elevated serum urea, any grade: 0 n (%)
  TRAE Elevated serum urea, grade 3-4: 0 n (%)
  TRAE Elevated troponin, any grade: 1 (8.3) n (%)
  TRAE Elevated troponin, grade 3-4: 0 n (%)
  TRAE Genital rash, any grade: 0 n (%)
  TRAE Genital rash, grade 3-4: 0 n (%)
  TRAE Haematuria, any grade: 3 (25.0) n (%)
  TRAE Haematuria, grade 3-4: 0 n (%)
  TRAE Headache, any grade: 0 n (%)
  TRAE Headache, grade 3-4: 0 n (%)
  TRAE Hyperhidrosis, any grade: 1 (8.3) n (%)
